Marks after values point to notes of the source that are not given here.
Key:
human CaSR = target: T1, human CaSR (Homo sapiens, UniProt P41180, E1011Q); assay: Evaluation of CaSR agonist activity (Ca2+ fluorescence, hCaSR-transfected 293E cells); assay type: cell-based
T1 construct: expressed in transfected cells; host or cells: 293E cells (EBNA1-expressing HEK293, ATCC CRL-10852), transient transfection with Fugene6
T1 sequence (P41180 20-1078 E1011Q): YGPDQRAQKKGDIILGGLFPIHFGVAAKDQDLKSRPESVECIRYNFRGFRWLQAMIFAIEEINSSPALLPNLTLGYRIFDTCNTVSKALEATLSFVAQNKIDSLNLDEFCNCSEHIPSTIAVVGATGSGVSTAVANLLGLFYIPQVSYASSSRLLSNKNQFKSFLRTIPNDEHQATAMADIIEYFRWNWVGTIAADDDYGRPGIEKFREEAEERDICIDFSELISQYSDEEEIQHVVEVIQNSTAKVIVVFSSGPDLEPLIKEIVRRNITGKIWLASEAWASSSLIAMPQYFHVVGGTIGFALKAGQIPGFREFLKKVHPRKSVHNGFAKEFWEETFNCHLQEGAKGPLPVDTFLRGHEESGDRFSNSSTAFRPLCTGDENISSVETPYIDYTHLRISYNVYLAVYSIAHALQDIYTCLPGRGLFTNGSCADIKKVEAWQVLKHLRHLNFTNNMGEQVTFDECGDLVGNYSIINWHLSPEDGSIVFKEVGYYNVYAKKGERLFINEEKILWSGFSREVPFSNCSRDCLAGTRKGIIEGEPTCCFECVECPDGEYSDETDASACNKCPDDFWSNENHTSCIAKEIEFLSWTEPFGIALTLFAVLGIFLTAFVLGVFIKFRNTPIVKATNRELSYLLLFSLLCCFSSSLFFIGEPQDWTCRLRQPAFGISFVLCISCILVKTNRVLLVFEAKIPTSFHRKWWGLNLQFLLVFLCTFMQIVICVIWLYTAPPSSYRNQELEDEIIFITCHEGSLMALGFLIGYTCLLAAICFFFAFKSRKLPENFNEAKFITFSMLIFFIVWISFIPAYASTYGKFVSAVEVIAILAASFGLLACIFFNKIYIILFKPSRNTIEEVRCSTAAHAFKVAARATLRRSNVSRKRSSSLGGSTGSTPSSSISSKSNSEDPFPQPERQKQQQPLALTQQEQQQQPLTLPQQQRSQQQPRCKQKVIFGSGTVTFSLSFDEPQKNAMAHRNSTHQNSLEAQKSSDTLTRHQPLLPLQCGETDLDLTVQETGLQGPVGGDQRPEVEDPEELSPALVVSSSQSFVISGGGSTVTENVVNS
Description: 293E Cells (EBNA1-expresion HEK293 cells, ATCC No. CRL-10852) were cultivated in DMEN/Ham's-F12 (3.15/mL glucose-containing Dulbecco's modified Eagle medium, available from Nakaraitesk Company) supplemented with 10% fetal calf serum, in the presence of 200 μg/mL of G418 (available from Genetisin). The cultured cells were inoculated in F25 flask at a density of 3×10^6 cells/10 mL, the flask was allowed to stand over 24 hours in a CO2 incubator (5% CO2, 37° C.), and then the human CaSR-expression plasmid hCaSR/pcDNA3.1 was transformed or transfected with a reagent for transfection Fugene6 (available from Roche Company). The transfected plasmid was maintained in a CO2 incubator for 6 to 7 hours, then the cells were recovered using a 10% fetal calf serum-containing DMEM/Ham's-F12 and the cells were inoculated in each well of a poly-D-lysine coat 96-well plate (BD-Biocoat) at a density of 70,000 cells/well.
To each well of the 96-well plate, each test compound was dissolved in a 0.1% BSA-containing Assay Buffer in an amount of 50 μl/well, and then any change of the intensity of fluorescence was monitored over 3 minutes using FLEX Station (available from Molecular Devices Company).
Method for the Determination of EC50:
The difference (RFU (Max-Min)) between the maximum and minimum fluorescent intensities observed for each well before and after the addition of each specific test compound was determined by the automatic calculation using FLEX Station. The activity rate was calculated while the RFU (Max-Min) value observed when adding the compound at the maximum concentration was defined to be 100% and the RFU (Max-Min) value observed when using the 0.1% BSA-containing Assay Buffer free of any test compound was defined to be 0%, followed by subjecting the resulting data to the curve-fitting procedures using the spreadsheet software Xfit or Graph-Pad-Prism to thus determine the EC50 which was the concentration of the compound at the activity rate of 50%.
In addition, the same EC50-determining procedures used above were repeated except for using other dipeptides as Comparative Examples.

[1] = Paired comparison sensory test, basil (Labiatae) herb/spice solution; assay type: in vivo, human; details: 0.5% basil solution, N=9
Description: More specifically, the sensory evaluation test was carried out according to the following procedures: Commercially available typical herb/spice in powdery form was dispersed in water in a concentration of 0.5% by mass to thus form a herb/spice solution. This solution was admixed with γ-Glu-Nva, γ-Glu-Cys-Gly, or γ-Glu-Abu as a test compound. According to the paired comparison test, the panelists were requested to comparatively evaluate the following three samples and to judge whether “any of them was preferred since it could enhance the flavor and taste of the herb/spice solution without changing the balance between them”: (1) 0.02% by mass of γ-Glu-Cys-Gly whose kokumi-imparting activity was identical to 0.00015% by mass of γ-Glu-Nva; (2) 0.00015% by mass of γ-Glu-Abu, the amount of which was identical to 0.00015% by mass of γ-Glu-Nva; (3) 0.003% by mass of γ-Glu-Abu whose kokumi-imparting activity was identical to that observed for 0.00015% by mass of γ-Glu-Nva. The panelists used in this test were persons who had been engaged in the development of seasonings for foods over not less than one year of the cumulative time period and who could judge that the difference in the titer between γ-Glu-Cys-Gly and γ-Glu-Val-Gly added to a solution having umami/salty taste is about 10 times (while confirming the ability of these persons at regular intervals). The evaluation was carried out at N (the number of panelists used)=9.

For `CCC[C@H](NC(=O)CC[C@H](N)C(=O)O)C(=O)O` [γ-Glu-Nva, γ-L-glutamyl-L-norvaline], the EC50 (human CaSR; 293E cells transfected with hCaSR/pcDNA3.1, Calcium 4 fluorescence, FLEX Station) was 120 nM, the CaSR agonist activity (human CaSR; compared with other dipeptides) was “strong CaSR agonist activity comparable to that observed for γ-Glu-Cys” and the “No. of Panelists who judged γ-Glu-Nva rather preferred” value ([1]; 0.00015 wt % γ-Glu-Nva vs 0.00015 wt % γ-Glu-Abu, significant level of 1%) was 9/9**. The “No. of Panelists who judged γ-Glu-Nva rather preferred” value ([1]; 0.00015 wt % γ-Glu-Nva vs 0.003 wt % γ-Glu-Abu, significant level of 5%) was 8/9*** and the “No. of Panelists who judged γ-Glu-Nva rather preferred” value ([1]; 0.00015 wt % γ-Glu-Nva vs 0.02 wt % γ-Glu-Cys-Gly, significant level of 1%) was 9/9**.

From patent US8541379B2 (Ajinomoto Co., Inc., priority 2009, dated 2013)
